Reference: PMC6116703, “Ethenesulfonyl fluoride derivatives as telomerase inhibitors: structure-based design, SAR, and anticancer evaluation in vitro” (Journal of Enzyme Inhibition and Medicinal Chemistry, 2018)
Read-outs that look alike come from different tables or passages of the source.

Assays:
human melanoma cell A375 = assay: Cell proliferation (MTT) assay, A375; assay type: cell-based
Protocol: (§1) The antiproliferative activities evaluation was conducted by using a modified procedure as described in the literature. Briefly, target tumour cells were grown to log phase in RPMI 1640 medium supplemented with 10% fetal bovine serum. After diluting to 3 × 10^4 cells mL^−1 with the complete medium, 100 µL of the obtained cell suspension was added to each well of 96-well culture plates. The subsequent incubation was performed at 37 °C, 5% CO2 atmosphere for 24 h before subjecting to antiproliferation assessment. The tested samples at pre-set concentrations were added to six wells with Doxorubicin (AMD) co-assayed as a positive reference. After 48 h of exposure period, 25 µL of PBS containing 2.5 mg·mL^−1 of MTT was added to each well. After 4 h, the medium was replaced by 150 µL DMSO to dissolve the purple formazan crystals produced. The absorbance at 570 nm of each well was measured using an ELISA plate reader. The data represented the mean of three experiments in triplicate and were expressed as means ± SD using Student’s test.

[1] = test system: human gastric cancer cells MGC-803; assay: Cell proliferation (MTT) assay, MGC-803; assay type: cell-based; settings: antiproliferative, MTT, 48 h exposure; read-out: IC50 MGC-803
Protocol: as §1

[2] = test system: human hepatoma cell SMMC-7721; assay: Cell proliferation (MTT) assay, SMMC-7721; assay type: cell-based; settings: read-out: IC50 SMMC-7721
Protocol: as §1

[3] = test system: human breast cancer cell MDA-MB-231; assay: Cell proliferation (MTT) assay, MDA-MB-231; assay type: cell-based
Protocol: as §1

telomerase = target: T1, telomerase (Homo sapiens, UniProt O14746); assay: Telomerase activity TRAP-PCR-ELISA assay (A375 cell extract); assay type: biochemical; settings: IC50 inhibitory activity against telomerase, TRAP-PCR-ELISA, A375 cells, 24 h treatment
T1 construct: endogenous in cells; host or cells: A375 human melanoma cells
T1 sequence (O14746 whole entry): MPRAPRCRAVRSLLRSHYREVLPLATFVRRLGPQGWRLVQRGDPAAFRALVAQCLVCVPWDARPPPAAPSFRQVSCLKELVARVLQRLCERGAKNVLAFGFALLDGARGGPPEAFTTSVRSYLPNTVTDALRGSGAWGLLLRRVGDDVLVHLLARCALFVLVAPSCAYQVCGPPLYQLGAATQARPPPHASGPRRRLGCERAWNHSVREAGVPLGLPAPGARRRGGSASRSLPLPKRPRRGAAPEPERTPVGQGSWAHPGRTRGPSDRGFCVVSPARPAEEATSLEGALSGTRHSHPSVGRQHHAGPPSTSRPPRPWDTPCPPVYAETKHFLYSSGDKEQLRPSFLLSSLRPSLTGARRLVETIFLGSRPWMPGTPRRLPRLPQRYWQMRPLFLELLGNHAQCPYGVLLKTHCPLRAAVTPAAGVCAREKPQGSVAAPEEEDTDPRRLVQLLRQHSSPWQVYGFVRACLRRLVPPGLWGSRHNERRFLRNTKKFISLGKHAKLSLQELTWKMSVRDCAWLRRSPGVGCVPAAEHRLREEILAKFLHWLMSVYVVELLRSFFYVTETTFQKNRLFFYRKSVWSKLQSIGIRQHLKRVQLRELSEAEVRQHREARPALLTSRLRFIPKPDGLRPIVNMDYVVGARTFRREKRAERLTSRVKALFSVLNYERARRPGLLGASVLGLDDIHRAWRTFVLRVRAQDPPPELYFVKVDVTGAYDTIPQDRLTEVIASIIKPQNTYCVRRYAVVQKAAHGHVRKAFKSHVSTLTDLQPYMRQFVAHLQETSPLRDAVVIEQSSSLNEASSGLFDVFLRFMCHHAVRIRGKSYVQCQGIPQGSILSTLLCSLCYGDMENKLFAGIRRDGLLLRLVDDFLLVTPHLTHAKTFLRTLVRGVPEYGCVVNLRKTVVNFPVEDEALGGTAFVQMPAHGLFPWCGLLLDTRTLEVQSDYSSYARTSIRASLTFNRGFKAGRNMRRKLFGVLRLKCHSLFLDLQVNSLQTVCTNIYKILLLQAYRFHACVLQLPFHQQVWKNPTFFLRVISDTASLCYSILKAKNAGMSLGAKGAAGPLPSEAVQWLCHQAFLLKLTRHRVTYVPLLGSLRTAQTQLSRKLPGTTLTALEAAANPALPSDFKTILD
Protocol: Thirty-six compounds were tested in a search for inhibitors of telomerase activity using the TRAP-PCR-ELISA assay. In detail, the A375 cells were firstly maintained in RPMI 1640 buffer (Hyclone, Miami, FL), supplemented with 10% fetal bovineserum (GIBCO, New York, NY), streptomycin (0.1 mg/mL) and penicillin (100 IU/mL) at 37 °C in a humidified atmosphere containing 5% CO2. After trypsinisation, 5 × 10^4 cultured cells in logarithmic growth were seeded into T25 flasks (Corning, New York, NY) and cultured to allow to adherence. […] After 24 h treatment, the cells were harvested by cell scraper orderly followed by washing once with PBS. The cells were lysed in 150 µL RIPA cell lysis buffer (Santa Cruz, Santa Cruz, CA), and incubated on ice for 30 min. The cellular supernatants were obtained via centrifugation at 12,000g for 20 min at 4 °C and stored at –80 °C. The TRAP-PCR-ELISA assay was performed using a telomerase detection kit (Roche, Basel, Switzerland) according to the manufacturer’s protocol. In brief, 2 µL of cell extracts were mixed with 48 µL TRAP reaction mixtures. TRAP primers and Taq polymerase are incubated at 25 °C for 30 min. PCR was then initiated at 94 °C, 120 s for predenaturation and performed using 35 cycles each consisting of 94 °C for 30 s, 50 °C for 30 s, 72 °C for 90 s. Then 20 µL of PCR products were hybridised to a digoxigenin (DIG)-labelled telomeric repeat specific detection probe. And the PCR products were immobilised via the biotin-labelled primer to a streptavidin-coated microtiter plate subsequently. The immobilised DNA fragments were detected with a peroxidase-conjugated anti-DIG antibody and visualised following the addition of the stop regent. The microtitre plate was assessed on TECAN Infinite M200 microplate reader (Mannedorf, Switzerland) at a wavelength of 490 nm, and the final value were presented as mean ± SD[23].

[4] = antiproliferative, MTT, 48 h exposure, read-out: IC50 A375
[5] = antiproliferative, MTT, 48 h exposure
[6] = antiproliferative, MTT, 48 h exposure, read-out: IC50 MDA-MB-231
[7] = Homo sapiens, A-375, 48 h, read-out: IC50 A375, antiproliferative, MTT, 48 h exposure
[8] = read-out: IC50 A375, antiproliferative, MTT, 48 h exposure
[9] = Homo sapiens, MDA-MB-231, 48 h, read-out: IC50 MDA-MB-231, antiproliferative, MTT, 48 h exposure

Compound: CCc1ccc(/C=C/S(=O)(=O)F)cc1 [Compound 2]
- IC50 (human melanoma cell A375; [4]): 22.8 ± 0.71 µM
- IC50 [1]: 28.6 ± 1.27 µM
- IC50 [2, 5]: 28.5 ± 1.47 µM
- IC50 [3, 6]: 58.6 ± 1.78 µM

Compound: O=S(=O)(F)/C=C/c1ccc(Oc2ccccc2)cc1 [Compound 3]
- IC50 (human melanoma cell A375; [4]): 27 ± 0.82 µM
- IC50 [3, 6]: 31.8 ± 1.44 µM

Compound: COc1ccc(/C=C/S(=O)(=O)F)cc1 [Compound 4]
- IC50 (human melanoma cell A375; [4]): 16.9 ± 1.22 µM
- IC50 [2, 5]: 73.8 ± 1.7 µM
- IC50 [3, 6]: 24.7 ± 2.15 µM

Compound: O=S(=O)(F)/C=C/c1ccc(OC(F)(F)F)cc1 [Compound 9]
- IC50 (human melanoma cell A375; [4]): 24.1 ± 0.99 µM
- IC50 [1]: 38.6 ± 1.22 µM
- IC50 [2, 5]: 9.04 ± 0.99 µM
- IC50 [3, 6]: 36.5 ± 2.56 µM

Compound: O=S(=O)(F)/C=C/c1ccc(C(F)(F)F)cc1 [Compound 10]
- IC50 (human melanoma cell A375; [4]): 5.43 ± 0.4 µM
- IC50 [1]: 24.9 ± 0.82 µM
- IC50 [2, 5]: 40.1 ± 1.66 µM
- IC50 [3, 6]: 29.8 ± 2.31 µM

Compound: CC(=O)c1ccc(/C=C/S(=O)(=O)F)cc1 [Compound 11]
- IC50 (human melanoma cell A375; [4]): 10.6 ± 0.9 µM
- IC50 [2, 5]: 65.8 ± 1.79 µM
- IC50 [3, 6]: 5.66 ± 0.28 µM

Compound: O=[N+]([O-])c1ccc(/C=C/S(=O)(=O)F)cc1 [Compound 12]
- IC50 (telomerase): 2.77 ± 0.58 µM
- IC50 (human melanoma cell A375; [7]): ~3 µM
- IC50 (human melanoma cell A375; [8]): 3.58 ± 0.11 µM
- IC50 [3, 9]: 4.25 ± 0.32 µM

Compound: N#Cc1ccc(/C=C/S(=O)(=O)F)cc1 [Compound 13]
- IC50 (telomerase): 39 ± 1.29 µM

Compound: CCOC(=O)c1ccc(/C=C/S(=O)(=O)F)cc1 [Compound 14]
- IC50 (human melanoma cell A375; [4]): 50 ± 1.78 µM
- IC50 [2, 5]: 27 ± 1.01 µM
- IC50 [3, 6]: 3.6 ± 0.3 µM

Compound: COc1cccc(/C=C/S(=O)(=O)F)c1 [Compound 16]
- IC50 (human melanoma cell A375; [4]): 21.1 ± 0.87 µM
- IC50 [2, 5]: 45.6 ± 1.29 µM
- IC50 [3, 6]: 28.5 ± 1.78 µM

Compound: Cc1cccc(/C=C/S(=O)(=O)F)c1 [Compound 17]
- IC50 (telomerase): 10.1 ± 1.13 µM
- IC50 (human melanoma cell A375; [7]): 12.1 ± 1.19 µM
- IC50 [3, 9]: 10.6 ± 0.91 µM

Compound: O=S(=O)(F)/C=C/c1cccc(F)c1 [Compound 18]
- IC50 (telomerase): 1.09 ± 0.11 µM
- IC50 (human melanoma cell A375; [7]): ~3 µM
- IC50 (human melanoma cell A375; [8]): 3.82 ± 0.31 µM
- IC50 ([2]; Homo sapiens, SMMC-7721, 48 h): 24.8 ± 1.58 µM
- IC50 [3, 9]: 5.24 ± 0.4 µM

Compound: O=S(=O)(F)/C=C/c1cccc(Br)c1 [Compound 19]
- IC50 (human melanoma cell A375; [4]): 20.1 ± 0.9 µM
- IC50 [3, 6]: 12.1 ± 1.52 µM

Compound: O=S(=O)(F)/C=C/c1cccc(C(F)(F)F)c1 [Compound 20]
- IC50 (telomerase): 4.17 ± 0.39 µM
- IC50 (human melanoma cell A375; [7]): 10.4 ± 0.82 µM
- IC50 ([2]; Homo sapiens, SMMC-7721, 48 h): 20 ± 1.74 µM
- IC50 [3, 9]: 3.18 ± 0.2 µM

Compound: O=[N+]([O-])c1cccc(/C=C/S(=O)(=O)F)c1 [Compound 22]
- IC50 (telomerase): 2.25 ± 0.3 µM
- IC50 (human melanoma cell A375; [7]): 4.14 ± 0.21 µM
- IC50 ([2]; Homo sapiens, SMMC-7721, 48 h): 26.1 ± 0.73 µM
- IC50 [3, 9]: 6.54 ± 0.74 µM

Compound: COc1ccccc1/C=C/S(=O)(=O)F [Compound 23]
- IC50 (human melanoma cell A375; [4]): 25.3 ± 1.33 µM
- IC50 [3, 6]: 33.8 ± 2.89 µM

Compound: Cc1ccccc1/C=C/S(=O)(=O)F [Compound 24]
- IC50 (human melanoma cell A375; [4]): 24.5 ± 1.55 µM
- IC50 [2, 5]: 52.8 ± 1.44 µM
- IC50 [3, 6]: 41.8 ± 2.97 µM

Compound: Cc1ccc(/C=C/S(=O)(=O)F)c(C)c1 [Compound 27]
- IC50 (human melanoma cell A375; [4]): 7.83 ± 0.4 µM
- IC50 [2, 5]: 50.7 ± 1.82 µM
- IC50 [3, 6]: 39.8 ± 2.55 µM

Compound: Cc1cc(C)cc(/C=C/S(=O)(=O)F)c1 [Compound 28]
- IC50 (human melanoma cell A375; [4]): 10.2 ± 0.75 µM
- IC50 [2, 5]: 16.7 ± 0.65 µM
- IC50 [3, 6]: 20.6 ± 2.11 µM

Compound: Cc1cc(/C=C/S(=O)(=O)F)ccc1Br [Compound 29]
- IC50 (human melanoma cell A375; [4]): 14.3 ± 0.91 µM
- IC50 [3, 6]: 16.9 ± 0.87 µM

Compound: O=S(=O)(F)/C=C/c1cccc2ccccc12 [Compound 30]
- IC50 (human melanoma cell A375; [4]): 28 ± 1.31 µM
- IC50 [2, 5]: 2.29 ± 0.17 µM
- IC50 [3, 6]: 25.1 ± 0.99 µM

Compound: O=S(=O)(F)/C=C/c1ccc(F)cc1F [Compound 32]
- IC50 (human melanoma cell A375; [4]): 12.3 ± 0.41 µM
- IC50 [2, 5]: 27 ± 0.9 µM
- IC50 [3, 6]: 16.1 ± 0.41 µM

Compound: O=S(=O)(F)/C=C/c1ccc(O)cc1 [Compound 33]
- IC50 (human melanoma cell A375; [4]): 4.96 ± 0.51 µM
- IC50 [1]: 35.9 ± 0.79 µM
- IC50 [2, 5]: 26.2 ± 0.39 µM
- IC50 [3, 6]: 19 ± 0.65 µM

Compound: O=S(=O)(F)/C=C/c1cccc(O)c1 [Compound 34]
- IC50 (human melanoma cell A375; [4]): 5.37 ± 0.6 µM
- IC50 [2, 5]: 23 ± 0.45 µM
- IC50 [3, 6]: 23.4 ± 0.88 µM

Compound: O=S(=O)(F)/C=C/c1ccccc1O [Compound 35]
- IC50 (human melanoma cell A375; [4]): 7.41 ± 0.77 µM
- IC50 [2, 5]: 36.5 ± 0.7 µM
- IC50 [3, 6]: 7.41 ± 0.33 µM

Compound: O=S(=O)(F)/C=C/c1cc(O)cc(O)c1 [Compound 36]
- IC50 (telomerase): 1.44 ± 0.22 µM
- IC50 (human melanoma cell A375; [7]): 4.01 ± 0.68 µM
- IC50 ([2]; Homo sapiens, SMMC-7721, 48 h): 29 ± 0.78 µM
- IC50 [3, 9]: 37.2 ± 1.4 µM
